Test results as given in patent US10421780B2, “Peptide for targeting autophagic cells and use thereof” (Kyungpook National University Industry-Academic Cooperation …, priority 2015, dated 2019).
Ends that are not written are not given here.

Assays:
[1] = tested on: A549, HT1376, MDA-MB-231, HeLa and BEAS-2B cell lines; experiment: Western blotting of LC3 I and LC3 II for autophagy level; assay type: cell-based; details: chloroquine treated together with rapamycin, 4 hours; all the cells (FIG. 1)
Experimental: After 4 hours, the cells were washed two times with 1×PBS, followed by a western blotting was carried out to investigate the protein levels of LC3 I and LC3 II (hereinafter referred to as, LC3 I/II). In order to perform the western blotting, the cells were first lysed with RIPA buffer with 1/ml protease inhibitor cocktail in the drug-treated cells. The whole cell extracts were fractionated by SDS-PAGE, and transferred to a nitrocellulose membrane using a dry blot (Bio-Rad). The membranes were incubated with TBST (10 mM Tris, pH 8.0, 150 mM NaCl, 0.5% Tween 20) containing 5% nonfat milk for 60 minutes, then washed once with TBST. The membrane was treated with rabbit antibody against human LC3 I/II (abcam) and stirred overnight at 4° C. The membrane was washed 3 times for 10 min with TBST, then was incubated for 1 hour with the HRP-labeled antibody (mouse anti-rabbit IgG-HRP, Santa Cruz, Inc.) against the rabbit antibody isolated from a mouse as a secondary antibody (1:3000 dilution). After washing three times with TBST and developing according to the protocol of the manufacturer of the ECL system (Amersham Biosciences), an image was detected with a luminescent image analyzer (LAS100 Plus, Fujifilm, Japan).

[2] = tested on: autophagy cells (rapamycin-treated HeLa or MDA-MB-231 cells); experiment: Immunofluorescent staining of phage clones on rapamycin-treated cells; assay type: cell-based; details: phage clones displaying the peptide; rapamycin 4 hr; anti-M13 immunofluorescence (FIG. 4)
Experimental: A phage clone with high specificity for binding to autophagy cells was selected through phage binding ELISA for autophagy cells. More specifically, For binding of each phage clone in vitro, cells were seeded at 2×10^4 cells/well in a 96-well culture plate and cultured in 80˜90% confluence. And then cells were treated with rapamycin in serum-free medium for 4 hours, then washed with PBS and blocked with 1% BSA for 30 minutes at room temperature. The treated cells were then incubated with each phage clone (1×10^9 pfu/well). The pool of a phage library was used as a control. After 1 hour incubation at 4° C. with a phage clone, the cells were washed again with PBS and fixed with […] (in DMEM). Next, HRP-conjugated anti-M13 phage monoclonal antibody (1:3000 dilution, NEB) was added to M13 phage and incubated at room temperature for one hour. The cells were washed three times with PBS, and the TMB substrate (100/well) was treated for 2-10 min for color development and the reaction was terminated by treatment with 2M H2SO4. The final color product was measured at 450 nm wavelength in microtitration plate reader (Sunrise, Tecan Austria) using a windows based program XFluor4.
Further, after the phage clones selected for the rapamycin-treated cells were cultured as described above, immunofluorescent staining was performed using a mouse monoclonal antibody to M13 phage (mouse anti-M13 monoclonal antibody, diluted 1:3000) and Alexa 549-labeled antibody (Alexa 549-conjugated anti-mouse IgG antibody, abcam) against the mouse antibody as a secondary antibody in a conventional manner to confirm the attachment specificity and effect of the phage clones, and used for screening. […] The four peptide sequences of the clones is as follows; CKHHLGAIC (AtgPep-1, SEQ ID NO: 1), CQQTKNYYC (AtgPep-2, SEQ ID NO: 2), CNTGSPYEC: SEQ ID NO: 3 (AtgPep-3, SEQ ID NO: 3), CPPNTDRSC (AtgPep-4, SEQ ID NO: 4). […] It was confirmed that the phage clones displaying AtgPep-1 to AtgPep-4 specifically bind to autophagy cells respectively. In particular, it was confirmed that the phage clones specifically bind to the autophagy cells even in the initial (4 hr) autophagy state.

[3] = tested on: pEGFP-LC3-transfected MDA-MB-231 cells treated with EBSS; experiment: Detection of autophagy cells in the early stages of autophagy induction, fluorescence microscopy; assay type: cell-based; details: for fluorescence signal on early autophagy cells: Rhodamine B-labeled peptide 10 μmol/L, 4° C. 1 hour, EBSS 2 hours (FIG. 6); for site of binding on autophagy-induced cells: rhodamine-labeled peptide, single MDA-MB-231 cell (FIGS. 7A and 7B)
Experimental: (§1) pEGFP-LC3-transfected MDA-MB-231 cells were cultured on an eight-chamber slide and were treated with EBSS (Earl's balanced salt solution) for 2 hours to induce autophagy. Cells were then washed with PBS and treated with 10 μmol/L of each solution of Rhodamine B-labeled AtgPep-1 to AtgPep-4 (provided in PBS diluted) and incubated at 4° C. for 1 hour. Then 1% BSA was treated at 4° C. for 1 hour. The cells were fixed with 4% paraformaldehyde for 5 minutes. The cells were then stained with […] (DAPI) and mounted on a fluorescence microscope (Zeiss, Oberkochen, Germany).

[4] = tested on: HeLa cell, Chang cell and BEAS-2B cell; experiment: Detection of autophagy cells in other cell types, fluorescence microscopy; assay type: cell-based; details: rhodamine B labeled, BEAS-2B cells (FIG. 8)
Experimental: as §1
In order to verify that the peptide of the present invention acts also on other tissues or cells other than the MDA-MB-231 cell line, autophagy was induced in several kinds of cells (derived from different tissues) and their detection ability was confirmed using AtgPep-1 (CKHHLGAIC; SEQ ID NO: 1) and AtgPep-2 (CQQTKNYYC: SEQ ID NO: 2) which represent particularly high signals among AtgPep-1 to AtgPep-4. The experimental method is the same as described above.

[5] = tested on: MDA-MB-231 tumor tissue after rapamycin autophagy induction; experiment: Microscopy of tumor frozen sections for peptide target signal; assay type: in vivo, nude mouse; details: flamma 675-labeled peptide; five hours after the peptide injection; frozen sections (FIG. 10)
Experimental: After five hours of the peptide injection, the image were acquired. Then the mice were sacrificed and the tumors were separated and frozen sections of tissues were prepared. Six μm-thickness tumor frozen sections were stained with DAPI for nuclear staining and immunostained with LC3 antibody for autophagy induction. The signal of flamma 675 (FPR675) dye, LC3 and DAPI were observed as red, green and blue under a microscope, respectively.

[6] = tested on: MDA-MB-231 tumor after rapamycin autophagy induction; experiment: In vivo NIRF imaging of autophagy in tumor animal model; parameters: species or system nude mouse; details: flamma 675-labeled peptide, tail vein, 50 μM; 4 to 5 hours after peptide injection; rapamycin 1.5 mg per kg i.p. (FIG. 9)
Experimental: As an experiment for monitoring and imaging autophagy using a peptide probe, tumor cells were transplanted into immunodeficient nude mice to grow tumors, and animal models for experiments were constructed. The MDA-MB-231 cell (10^6 cells), which was verified in the results of FIGS. 7A and 7B of the present invention, was injected into the femoral region of the nude mouse, and it was confirmed that the size of the tumor was 80 mm^3 after 10 days. In order to induce autophagy, rapamycin was injected intraperitoneally into each mouse in an amount of 1.5 mg per kg of the mouse. Two hours after the injection of rapamycin, AtgPep-2 (CQQTKNYYC: SEQ ID NO: 2) of the present invention, labeled with flamma 675 (=FPR675, Bioact Co., Korea), a near-infrared fluorescent (NIRF) was administered to each mouse (N=5 To 7) via tail vein at a final 50 μM concentration/mouse, while being allowed to circulate along the blood for 2 hours to obtain optical and fluorescence imaging at 2 hours, 4 hours, and 5 hours after the administration of the peptide. As a control, CNSSSVDKC peptide (Control, SEQ ID NO: 10) labeled with flamma 675 was injected at the same concentration and method. NIRF imaging signals were scanned and acquired using an IVIS imaging system (Caliper Life Sciences, Massachusetts, USA).

Compound	binding specificity of phage clones to autophagy cells [2]	fluorescence signal on early autophagy cells [3]	site of binding on autophagy-induced cells [3]	targeting to autophagy cells in other cell types [4]	target signal in the tumor tissue [5]	further results
CCN(CC)CCCC(C)Nc1ccnc2cc(Cl)ccc12 (centres unmarked) [chloroquine]						production of LC3 II protein [1]: further increased
CKHHLGAIC (Artificial Amino acid sequence of AtgPep-1)	high binding specificity to autophagy cells	strong fluorescence signals	bound to the cell membrane of the autophagy cell	specifically targeted to autophagy cells regardless of cell types		
CNSSSVDKC (not fully specified; cysteine pairing not given here; also: flamma 675 label) [control peptide labeled with flamma 675, reference compound]					target signal was not present	
CNTGSPYEC (Artificial Amino acid sequence of AtgPep-3)	high binding specificity to autophagy cells					
CPPNTDRSC (Artificial Amino acid sequence of AtgPep-4)	high binding specificity to autophagy cells					
CQQTKNYYC (Artificial Amino acid sequence of AtgPep-2)	high binding specificity to autophagy cells	strong fluorescence signals	bound to the cell membrane of the autophagy cell	specifically targeted to autophagy cells regardless of cell types	significantly higher	tumor targeting in NIRF imaging versus control peptide [6]: significantly higher level
